Results taken from patent US6699656B2, “Treatment and prevention of HIV infection by administration of derivatives of human chorionic gonadotropin” (University of Maryland Biotechnology Institute, priority 1996, dated 2004).
Bridges are numbered along the chain shown (N, C = ends). Where no end group is shown, it is not given here.

Columns and labels:
HIV-1 [1] = system: HIV-1
KS Y-1 tumors = KS Y-1 tumors induced in immunodeficient mice; type: in vivo; details: treatment from one week after tumor cell injection; peptides 10 μg daily 5 days, hCG APL 100 IU s.c. daily 7 days
Experimental: The effects of the peptides on KS tumor cells were also evaluated in vivo in the mouse model. To induce KS tumors in the mice, 1×10^6/ml KS Y-1 cells in 50 μl PBS or saline were injected subcutaneously into immunodeficient mice (beige-XID-BNX mice). […] Methods for detection of apoptosis (from tissue biopsies) were used, as described in Lunardi-Iskandar, Y. et al.(1995, Nature 375:64-68). Briefly, the samples were stained in situ for the presence of cells with DNA fragmentation. Tissue slides from formalin-fixed tumors were treated with terminal deoxynucleotide transferase for extension of DNA ends (hydroxyl 3′) and incorporation of digoxigenin-11-dUTP according to the manufacturer's instructions (Oncor, Gaithersburg, Md.). Anti-digoxigenin antibody conjugated with the enzyme peroxidase allowed detection of apoptotic cells that stain brown whereas viable cells stain blue.

KS Y-1 or KS-SLK cells = assay: KS clonogenic assay; type: cell-based, human; details: 2 KS cell lines; peptides 50 nmoles/ml, CR127 2 nmoles/ml; 10 days
Experimental: Briefly, the KS Y-1 cells were obtained from mononuclear cells isolated from pleural effusion of an AIDS patient with KS involving the lungs. After the depletion of T lymphocytes, monocytes/macrophages and fibroblasts by the cytotoxicity method, using monoclonal antibodies against CD2, CD3, CD4, CD8, CD10 and CD14 membrane antigens and baby rabbit complement, the cells were cultured in the absence of exogenous growth factors to select for transformed cells.

[2] = system: hematopoietic progenitor cells; assay: Hematopoietic progenitor colony assays (CFU-MIX, BFU-e, CFU-GM); type: cell-based; details: bone marrow and cord blood; hCG 200 IU/ml, peptides and subunits 100 μg/ml; 10 days
Source text: Hematopoietic progenitor cells (2×10^5 cell/ml) were isolated from normal bone marrow and cord blood and seeded in methylcellulose. […] Aggregates containing more than 50 cells after 10 days of culture were counted as colonies.

HIV-1 [3] = details: p24 antigen days 3 to 10; peptides 0.05 to 50 nmoles/ml, hCG 0.01 to 1,000 IU, native β-hCG 100 to 1,000 μg
Experimental: Sequences of the peptides are as follows:
HIV-1 infected cells were treated with the above preparations and the virus was measured.

Kaposi's Sarcoma = details: literature; cited from earlier work
HIV-1 transgenic mice = type: in vivo

Row | Compound | effect on KS Y-1 tumors in mice (cell death, thin sections) (KS Y-1 tumors) | anti-KS effect in clonogenic assays (number of colonies) (KS Y-1 or KS-SLK cells) | growth of hematopoietic progenitors (colonies) [2] | inhibition of HIV-1 infection/replication in acutely infected cells (HIV-1 [3]) | also measured
1 | CC(C)(C)NC(=O)[C@@H]1CN(Cc2cccnc2)CCN1C[C@@H](O)C[C@@H](Cc1ccccc1)C(=O)N[C@H]1c2ccccc2C[C@H]1O [indinavir (Crixivan)] | – | – | – | – | viral load, patient PH-JPV (HIV-1 [1]; indinavir added after hCG induced pulmonary response): undetectable viral load
2 | CC(C)c1nc(CN(C)C(=O)N[C@H](C(=O)N[C@@H](Cc2ccccc2)C[C@H](O)[C@H](Cc2ccccc2)NC(=O)OCc2cncs2)C(C)C)cs1 [Ritonavir] | – | – | – | – | CD4+ T cells, patient PH-SPBE (HIV-1 [1]; Ritonavir added at 22 weeks to ongoing hCG treatment): over 300 mm^3
3 | β-hCG peptide 55-90: β-hCG peptide 55-90, forms the β-core (VVCNYRDVRFESIRLPGCPRGVNPVVSYAVALSCQC; UniProt P0DN86 75-110, looked up, fragment) | slight activity | – | – | – | –
4 | β-hCG peptide 57-93: β-hCG peptide of amino acids 57-93 (CNYRDVRFESIRLPGCPRGVNPVVSYAVALSCQCALC; UniProt P0DN86 77-113, looked up, fragment) | inactive | little or no inhibition | little or no effects | – | –
5 | β-hCG peptide 134-144: β-hCG peptide of amino acids 134-144 | inactive | – | little or no effects | – | –
6 | Cys Leu Gln Gly Val Leu Pro Ala Leu Pro Gln Val Val Cys (CLQGVLPALPQVVC; disulfide 1-14 (inferred)) [Satellin A2 peptide] | extensive cell death | strongest anti-tumor effects | directly promoted | most active | –
7 | β-hCG peptide 38-57: β-hCG peptide of amino acids 38-57, overlaps satellin A1 (CPTMTRVLQGVLPALPQVVC; UniProt P0DN86 58-77, looked up, fragment) | slight activity | little or no inhibition | little or no effects | – | –
8 | β-hCG peptide 6-16: β-hCG peptide of amino acids 6-16 (RPRCRPINATL; UniProt P0DN86 26-36, looked up, fragment) | inactive | little or no inhibition | little or no effects | little or no effect | –
9 | TCDDPRFQDSS [β-hCG peptide 109-119] | – | strongest anti-tumor effects | directly promoted | active | efficacy in the treatment of Kaposi's Sarcoma (Kaposi's Sarcoma): efficacious
10 | β-hCG peptide 93-100: β-hCG peptide of amino acids 93-100 (CRRSTTDC; UniProt P0DN86 113-120, looked up, fragment) | inactive | – | – | – | –
11 | β-hCG peptide 6-40: β-hCG peptide 6-40, forms the β-core (RPRCRPINATLAVEKEGCPVCITVNTTICAGYCPT; UniProt P0DN86 26-60, looked up, fragment) | slight activity | – | – | – | –
12 | α-hCG peptide 88-92: α-hCG peptide of amino acids 88-92 (YYHKS; UniProt P01215 112-116, looked up, fragment) | inactive | little or no inhibition | little or no effects | little or no effect | –
13 | Leu Gln Dab(Pro) Val Leu Pro Dab(Pro) Leu Pro Gln Val Val Cys [branched β-hCG 45-57] | – | – | – | – | hyperkeratosis of the skin / histology (HIV-1 transgenic mice; HIV-1 transgenic mice): normal histology; growth retardation and cachexia (HIV-1 transgenic mice; HIV-1 transgenic mice, branched peptide 10 μg to mothers s.c. daily for 10 days): reversal; survival (HIV-1 transgenic mice; all untreated mice died within 10 days, 10 μg to mothers s.c. daily for 10 days): survived; gp120 and nef protein by antibody staining (HIV-1 transgenic mice; pups, 10 μg to mothers s.c. daily for 10 days): down regulation
14 | β-hCG peptide 7-40: β-hCG peptide of amino acids 7-40 (PRCRPINATLAVEKEGCPVCITVNTTICAGYCPT; UniProt P0DN86 27-60, looked up, fragment) | – | little or no inhibition | little or no effects | – | –
15 | LQGVLPALPQVVC [β-hCG peptide 45-57] | extensive cell death | strongest anti-tumor effects | directly promoted | most active | –
16 | β-hCG peptide 34-49: β-hCG peptide of amino acids 34-49 (CAGYCPTMTRVLQGVL; UniProt P0DN86 54-69, looked up, fragment) | inactive | little or no inhibition | little or no effects | – | –
17 | β-hCG peptide 109-145: β-hCG carboxy-terminal peptide of amino acids 109-145 (TCDDPRFQDSSSSKAPPPSLPSPSRLPGPSDTPILPQ) | – | – | – | – | efficacy in the treatment of Kaposi's Sarcoma (Kaposi's Sarcoma): efficacious
18 | β-hCG peptide 74-95: β-hCG peptide of amino acids 74-95 (RGVNPVVSYAVALSCQCALCRR; UniProt P0DN86 94-115, looked up, fragment) | inactive | little or no inhibition | little or no effects | little or no effect | –
19 | β-hCG peptide 123-145: β-hCG peptide of amino acids 123-145 | inactive | – | little or no effects | – | –
20 | β-hCG peptide 100-110: β-hCG peptide of amino acids 100-110 (CGGPKDHPLTC; UniProt P0DN86 120-130, looked up, fragment) | inactive | little or no inhibition | little or no effects | – | –
